# Data as given in paper PMC12767106, “In Situ Assembly of Transformable Monopeptide on Activated Neutrophils Attenuates NETs‐Induced Hepatocellular Carcinoma Metastasis by Disrupting NE Nuclear Translocation” (Advanced Science, 2025).
# System: Hepa1-6/luc liver and lung metastasis
# Experiment: Liver and lung metastasis model
# Format: in vivo, mouse
# Settings: Hepa1-6/luc cells via spleen or tail vein, 300 µM in 200 µL i.v. every two days, 16 days, n = 5
# Text: Submitted to Advanced Science
# effector T cells (CD45+CD3+CD8+)/(CD45+CD3+CD4+), tumor cells were stained with anti-CD45-FITC
# (Biolegend), anti-CD3ε-PerCP-Cy5.5 (Biolegend), anti-CD4-APC (Biolegend), and anti-CD8a-PE (Biolegend)
# antibodies according to the standard protocol. For evaluation of NK cells (CD45+CD3-NK1.1+), tumor cells
# were stained with anti-CD45-FITC (Biolegend), anti-CD3-PE (Biolegend) and anti-CD49b-APC (Biolegend)
# antibodies and examined using flow cytometry. For MDSCs (CD45+CD11b+Gr-1+) analysis, tumor cells were
# stained with anti-CD45-FITC, anti-CD11b-BrilliantViolet-510 (Biolegend), anti -F4/80-PE (Biolegend), and
# anti-Gr-1-APC (Biolegend) antibodies for flow cytometry examination (BD FACS Canto SORP, USA). The
# software FlowJo V10.6.2 was used for data analysis. To further explore the immunomodulatory effects of FTP-
# NPs. Tumor tissues were harvested for immune profiling. Plasma cytokine levels, including IL-6, IL-10, and
# TNF-α, were measured using commercially available ELISA kits to assess the immune activation induced by
# Experimental liver and lung metastasis model
# Six-week-old male C57BL/6J mice (20–25 g) were used to establish liver and lung metastasis models. Hepa1-
# 6/luc cells (1 × 10^6 cells) were injected into the spleen or tail vein of the mice to induce liver or lung
# metastasis, respectively. For the liver metastasis model, Hepa1-6/luc cells were injected into the spleen, allowing
# tumor cells to circulate and establish metastases in the liver. For the lung metastasis model, Hepa1-6/luc cells
# were injected via the tail vein, leading to the formation of metastases in the lungs. Following cell implantation, […]
# euthanized, and metastases were assessed macroscopically. […]
# injecting D-Luciferin (150 mg/kg) intraperitoneally, and tumor burden was quantified using the IVIS Spectrum […]
# conducted, and metastatic lesions were assessed under an inverted microscope (Axiovert 200, Zeiss, Germany). […]
# 300 μM per injection) for mice. […] (b) Fluorescence quantized chart […]
# experiments. Statistical significance was calculated by one-way ANOVA, *p < 0.050.(c, d) Photographs of lung […]
compound,measurement,value
"CC(C)(C)C(=O)Oc1ccc(S(=O)(=O)Nc2ccccc2C(=O)NCC(=O)O)cc1 [NEi, Sivelestat, reference compound]","liver and lung metastasis (bioluminescent signals, number of metastatic foci)",obvious metastases
